Laboratory results taken from patent US20060140869A1, “Polymeric contrast agents for use in medical imaging” (priority 2004, published 2006).

Test system: rat mammary adenocarcinoma (Mat B) tumor
Assay: MR imaging of subcutaneous Mat B tumors in rats after intravenous injection of polymeric contrast agent
Assay type: in vivo
Settings: Mat B tumor in Fisher female rats
Protocol: Fisher female rats were implanted subcutaneously with rat mammary adenocarcinoma cells (ATTC Mat B cells) that were grown to a suitable density in tissue culture. The implanted cells grew into tumors of 1-2 cm diameter in about 10 to 14 days and continued to grow to larger sizes when experiments extended beyond that time frame.
The reptating polymer that was used (Polylysine-Gd-DTPA) was synthesized using a synthesis method described above with polymer length of 780 monomer units, molecular weight of 460 kDaltons, and about 98% of lysines acylated with DTPA (i.e. about 764 Gd ions). The animals were injected intravenously at a dose of 0.025 mmoles Gd/kG. FIG. 1 are a series of images taken wherein the imaging was done pre-injection, one minute after injection, 60 minutes after injection, and 24 hours after injection with a T1 weighted spin echo pulse sequence (TR=250 ms, TE=9 ms), 12 centimeter FOV, 1 millimeter slices. Receive coil was a solenoid coil of about 5 centimeters diameter. Imaging was done on a Signa 1.5 Tesla scanner.
FIG. 2 is a graph of the slopes in signal change for all the pixels in the tumor and the highest 10% of pixels in the tumor. The signals are heterogenous in space due to angiogenesis being most prevalent in the outer rim of the tumor. Thus in order to capture the regions of interest with high permeability, the average signal associated with the pixels of the entire tumor in the image slice is plotted in addition to the average signal associated with the highest 10% of the pixels. The highest 10% of the pixels represents the hypermeable regions associated with angiogenic processes. The use of all pixels represents the average values for the entire tumor which includes then the center of tumors which are often necrotic and unreactive in terms of blood perfusion. These regions are not biologically relevant and thus the total average values have more “noise” that are associated with the necrotic processes which are not of direct interest in the present case. […]

[1] = linear regression fit, intravenous injection, T1 weighted spin echo, 1.5 Tesla

Row | Substance | slope of signal change, all the pixels in the tumor [1] [% per hour] | slope of signal change, highest 10% of the pixels in the tumor [1] [% per hour] | magnetic resonance signal change compared with the polymer of Example 2 (0.025 mmoles Gd/kG intravenously)
1 | Polylysine-Gd-DTPA [Example 2] | 7 | 14 | –
2 | Polylysine-Gd-DTPA [Example 1] | – | – | enhanced magnetic resonance signals
